According to patent US20230233589A1, “METHODS FOR TREATING CANCER USING A MODIFIED MONOSACCHARIDE COMPOUND” (THERAONCO, priority 2020, published 2023):

Assay: Clinical follow-up of treated mice (body weight, water consumption)
Type: in vivo, NMRI nude mice
Protocol: 45 female NMRI nude mice, 6 weeks old.
Clinical follow-up: animals weight and tumor volume: 2-3 times a week.
Hela and Cal33 Cell Lines • cumulative dose of 20 mg (5 mg/mouse/inj repeated 1 day/2 for 8 days (4 times)) Panc-1 cell line • cumulative dose of […] (9 mg/mouse/injection repeated 1 day/2 for 21 days (11 times))
Hela Cell Lines • cumulative dose of 200 mg per mouse: 25 mg/day (8 mL/day @ 3.13 mg/mL) over 8 days
Cal33 Cell Lines • cumulative dose of 400 mg per mouse: 50 mg/day (8 mL/day @ 6.25 mg/mL) over 8 days
Panc-1 Cell Line • cumulative dose of 200 mg per mouse: 9.5 mg/day (8 mL/day @ 1.19 mg/mL) over 21 days

For `[N-]=[N+]=NC[C@H]1OC(O)[C@@H](O)[C@@H]1O` (stereo partly drawn) [Ara-N3, 5-azido-5-deoxy-D-arabinofuranose], the “water consumption of the mice” value (Ara-N3 in drinking water up to 6.25 mg/mL) was “did not alter the water consumption”, the body weight loss (treatment by intravenous injections) was “did not induce any body weight loss” and the body weight loss (treatment in drinking water) was “did not induce any body weight loss”.
